According to the NIST ThermoML archive (doi:10.1021/je1008747):
± gives the expanded uncertainty stated by the source.

Conditions: Liquid

## CCn1cc[n+](C)c1.C[C@H](O)C(=O)[O-] [3-ethyl-1-methylimidazolium (S)-2-hydroxypropanoate]
293.15 K, 101.33 kPa
  mass density: 1149.7 ± 2.8 kg/m3
298.15 K, 101.33 kPa
  mass density: 1146.1 ± 2.8 kg/m3
303.15 K, 101.33 kPa
  mass density: 1142.5 ± 2.8 kg/m3
308.15 K, 101.33 kPa
  mass density: 1139 ± 2.8 kg/m3
312.6 K, 100 kPa
  mass density: 1136 ± 3 kg/m3
312.6 K, 10000 kPa
  mass density: 1140 ± 3 kg/m3
312.6 K, 20000 kPa
  mass density: 1144 ± 3 kg/m3
312.6 K, 30000 kPa
  mass density: 1148 ± 3 kg/m3
312.6 K, 40000 kPa
  mass density: 1151 ± 3 kg/m3
312.6 K, 50000 kPa
  mass density: 1155 ± 3 kg/m3
312.6 K, 60000 kPa
  mass density: 1158 ± 3 kg/m3
312.6 K, 70000 kPa
  mass density: 1162 ± 3 kg/m3
312.6 K, 80000 kPa
  mass density: 1165 ± 3 kg/m3
312.6 K, 90000 kPa
  mass density: 1168 ± 3 kg/m3
312.6 K, 100000 kPa
  mass density: 1172 ± 3 kg/m3
312.6 K, 110000 kPa
  mass density: 1175 ± 4 kg/m3
312.6 K, 120000 kPa
  mass density: 1178 ± 4 kg/m3
312.6 K, 130000 kPa
  mass density: 1181 ± 4 kg/m3
312.6 K, 140000 kPa
  mass density: 1183 ± 4 kg/m3
312.6 K, 150000 kPa
  mass density: 1186 ± 4 kg/m3
312.6 K, 160000 kPa
  mass density: 1189 ± 4 kg/m3
312.6 K, 170000 kPa
  mass density: 1192 ± 4 kg/m3
312.6 K, 180000 kPa
  mass density: 1195 ± 4 kg/m3
312.6 K, 190000 kPa
  mass density: 1197 ± 5 kg/m3
312.6 K, 200000 kPa
  mass density: 1200 ± 5 kg/m3
313.15 K, 101.33 kPa
  mass density: 1135.6 ± 2.8 kg/m3
318.15 K, 101.33 kPa
  mass density: 1132.2 ± 2.8 kg/m3
323.15 K, 101.33 kPa
  mass density: 1128.8 ± 2.7 kg/m3
328.15 K, 101.33 kPa
  mass density: 1125.4 ± 2.7 kg/m3
332.1 K, 10000 kPa
  mass density: 1126 ± 3 kg/m3
332.1 K, 20000 kPa
  mass density: 1131 ± 3 kg/m3
332.1 K, 30000 kPa
  mass density: 1135 ± 3 kg/m3
332.1 K, 40000 kPa
  mass density: 1139 ± 3 kg/m3
332.1 K, 50000 kPa
  mass density: 1142 ± 3 kg/m3
332.1 K, 60000 kPa
  mass density: 1146 ± 3 kg/m3
332.1 K, 70000 kPa
  mass density: 1149 ± 3 kg/m3
332.1 K, 80000 kPa
  mass density: 1153 ± 3 kg/m3
332.1 K, 90000 kPa
  mass density: 1156 ± 3 kg/m3
332.1 K, 100000 kPa
  mass density: 1159 ± 3 kg/m3
332.1 K, 110000 kPa
  mass density: 1163 ± 3 kg/m3
332.1 K, 120000 kPa
  mass density: 1166 ± 4 kg/m3
332.1 K, 130000 kPa
  mass density: 1169 ± 4 kg/m3
332.1 K, 140000 kPa
  mass density: 1172 ± 4 kg/m3
332.1 K, 150000 kPa
  mass density: 1175 ± 4 kg/m3
332.1 K, 160000 kPa
  mass density: 1178 ± 4 kg/m3
332.1 K, 170000 kPa
  mass density: 1180 ± 4 kg/m3
332.1 K, 180000 kPa
  mass density: 1183 ± 4 kg/m3
332.1 K, 190000 kPa
  mass density: 1186 ± 4 kg/m3
332.1 K, 200000 kPa
  mass density: 1189 ± 5 kg/m3
333.15 K, 101.33 kPa
  mass density: 1122.1 ± 2.7 kg/m3
338.15 K, 101.33 kPa
  mass density: 1118.7 ± 2.7 kg/m3
343.15 K, 101.33 kPa
  mass density: 1115.4 ± 2.7 kg/m3
348.15 K, 101.33 kPa
  mass density: 1112.1 ± 2.7 kg/m3
352.1 K, 10000 kPa
  mass density: 1113 ± 3 kg/m3
352.1 K, 20000 kPa
  mass density: 1118 ± 3 kg/m3
352.1 K, 30000 kPa
  mass density: 1122 ± 3 kg/m3
352.1 K, 40000 kPa
  mass density: 1126 ± 3 kg/m3
352.1 K, 50000 kPa
  mass density: 1130 ± 3 kg/m3
352.1 K, 60000 kPa
  mass density: 1134 ± 3 kg/m3
352.1 K, 70000 kPa
  mass density: 1137 ± 3 kg/m3
352.1 K, 80000 kPa
  mass density: 1141 ± 3 kg/m3
352.1 K, 90000 kPa
  mass density: 1144 ± 3 kg/m3
352.1 K, 100000 kPa
  mass density: 1148 ± 3 kg/m3
352.1 K, 110000 kPa
  mass density: 1151 ± 3 kg/m3
352.1 K, 120000 kPa
  mass density: 1154 ± 3 kg/m3
352.1 K, 130000 kPa
  mass density: 1157 ± 4 kg/m3
352.1 K, 140000 kPa
  mass density: 1160 ± 4 kg/m3
352.1 K, 150000 kPa
  mass density: 1164 ± 4 kg/m3
352.1 K, 160000 kPa
  mass density: 1166 ± 4 kg/m3
352.1 K, 170000 kPa
  mass density: 1169 ± 4 kg/m3
352.1 K, 180000 kPa
  mass density: 1172 ± 4 kg/m3
352.1 K, 190000 kPa
  mass density: 1175 ± 4 kg/m3
352.1 K, 200000 kPa
  mass density: 1178 ± 4 kg/m3
353.15 K, 101.33 kPa
  mass density: 1108.8 ± 2.7 kg/m3
372.2 K, 10000 kPa
  mass density: 1101 ± 3 kg/m3
372.2 K, 20000 kPa
  mass density: 1105 ± 3 kg/m3
372.2 K, 30000 kPa
  mass density: 1110 ± 3 kg/m3
372.2 K, 40000 kPa
  mass density: 1114 ± 3 kg/m3
372.2 K, 50000 kPa
  mass density: 1118 ± 3 kg/m3
372.2 K, 60000 kPa
  mass density: 1122 ± 3 kg/m3
372.2 K, 70000 kPa
  mass density: 1126 ± 3 kg/m3
372.2 K, 80000 kPa
  mass density: 1129 ± 3 kg/m3
372.2 K, 90000 kPa
  mass density: 1133 ± 3 kg/m3
372.2 K, 100000 kPa
  mass density: 1137 ± 3 kg/m3
372.2 K, 110000 kPa
  mass density: 1140 ± 3 kg/m3
372.2 K, 120000 kPa
  mass density: 1143 ± 3 kg/m3
372.2 K, 130000 kPa
  mass density: 1147 ± 3 kg/m3
372.2 K, 140000 kPa
  mass density: 1150 ± 4 kg/m3
372.2 K, 150000 kPa
  mass density: 1153 ± 4 kg/m3
372.2 K, 160000 kPa
  mass density: 1156 ± 4 kg/m3
372.2 K, 170000 kPa
  mass density: 1159 ± 4 kg/m3
372.2 K, 180000 kPa
  mass density: 1162 ± 4 kg/m3
372.2 K, 190000 kPa
  mass density: 1165 ± 4 kg/m3
372.2 K, 200000 kPa
  mass density: 1168 ± 4 kg/m3
392.4 K, 10000 kPa
  mass density: 1088 ± 2 kg/m3
392.4 K, 20000 kPa
  mass density: 1093 ± 3 kg/m3
392.4 K, 30000 kPa
  mass density: 1098 ± 3 kg/m3
392.4 K, 40000 kPa
  mass density: 1102 ± 3 kg/m3
392.4 K, 50000 kPa
  mass density: 1106 ± 3 kg/m3
392.4 K, 60000 kPa
  mass density: 1110 ± 3 kg/m3
392.4 K, 70000 kPa
  mass density: 1114 ± 3 kg/m3
392.4 K, 80000 kPa
  mass density: 1118 ± 3 kg/m3
392.4 K, 90000 kPa
  mass density: 1122 ± 3 kg/m3
392.4 K, 100000 kPa
  mass density: 1126 ± 3 kg/m3
392.4 K, 110000 kPa
  mass density: 1129 ± 3 kg/m3
392.4 K, 120000 kPa
  mass density: 1133 ± 3 kg/m3
392.4 K, 130000 kPa
  mass density: 1136 ± 3 kg/m3
392.4 K, 140000 kPa
  mass density: 1139 ± 3 kg/m3
392.4 K, 150000 kPa
  mass density: 1143 ± 4 kg/m3
392.4 K, 160000 kPa
  mass density: 1146 ± 4 kg/m3
392.4 K, 170000 kPa
  mass density: 1149 ± 4 kg/m3
392.4 K, 180000 kPa
  mass density: 1152 ± 4 kg/m3
392.4 K, 190000 kPa
  mass density: 1155 ± 4 kg/m3
392.4 K, 200000 kPa
  mass density: 1158 ± 4 kg/m3
412.4 K, 10000 kPa
  mass density: 1076 ± 2 kg/m3
412.4 K, 20000 kPa
  mass density: 1081 ± 2 kg/m3
412.4 K, 30000 kPa
  mass density: 1086 ± 3 kg/m3
412.4 K, 40000 kPa
  mass density: 1090 ± 3 kg/m3
412.4 K, 50000 kPa
  mass density: 1095 ± 3 kg/m3
412.4 K, 60000 kPa
  mass density: 1099 ± 3 kg/m3
412.4 K, 70000 kPa
  mass density: 1103 ± 3 kg/m3
412.4 K, 80000 kPa
  mass density: 1107 ± 3 kg/m3
412.4 K, 90000 kPa
  mass density: 1111 ± 3 kg/m3
412.4 K, 100000 kPa
  mass density: 1115 ± 3 kg/m3
412.4 K, 110000 kPa
  mass density: 1119 ± 3 kg/m3
412.4 K, 120000 kPa
  mass density: 1122 ± 3 kg/m3
412.4 K, 130000 kPa
  mass density: 1126 ± 3 kg/m3
412.4 K, 140000 kPa
  mass density: 1129 ± 3 kg/m3
412.4 K, 150000 kPa
  mass density: 1132 ± 3 kg/m3
412.4 K, 160000 kPa
  mass density: 1136 ± 4 kg/m3
412.4 K, 170000 kPa
  mass density: 1139 ± 4 kg/m3
412.4 K, 180000 kPa
  mass density: 1142 ± 4 kg/m3
412.4 K, 190000 kPa
  mass density: 1145 ± 4 kg/m3
412.4 K, 200000 kPa
  mass density: 1148 ± 4 kg/m3
432.2 K, 10000 kPa
  mass density: 1064 ± 2 kg/m3
432.2 K, 20000 kPa
  mass density: 1069 ± 2 kg/m3
432.2 K, 30000 kPa
  mass density: 1074 ± 2 kg/m3
432.2 K, 40000 kPa
  mass density: 1079 ± 3 kg/m3
432.2 K, 50000 kPa
  mass density: 1084 ± 3 kg/m3
432.2 K, 60000 kPa
  mass density: 1088 ± 3 kg/m3
432.2 K, 70000 kPa
  mass density: 1093 ± 3 kg/m3
432.2 K, 80000 kPa
  mass density: 1097 ± 3 kg/m3
432.2 K, 90000 kPa
  mass density: 1101 ± 3 kg/m3
432.2 K, 100000 kPa
  mass density: 1105 ± 3 kg/m3
432.2 K, 110000 kPa
  mass density: 1109 ± 3 kg/m3
432.2 K, 120000 kPa
  mass density: 1112 ± 3 kg/m3
432.2 K, 130000 kPa
  mass density: 1116 ± 3 kg/m3
432.2 K, 140000 kPa
  mass density: 1119 ± 3 kg/m3
432.2 K, 150000 kPa
  mass density: 1123 ± 3 kg/m3
432.2 K, 160000 kPa
  mass density: 1126 ± 3 kg/m3
432.2 K, 170000 kPa
  mass density: 1130 ± 4 kg/m3
432.2 K, 180000 kPa
  mass density: 1133 ± 4 kg/m3
432.2 K, 190000 kPa
  mass density: 1136 ± 4 kg/m3
432.2 K, 200000 kPa
  mass density: 1139 ± 4 kg/m3
